Assay results: patent US20220324796A1, “ANTIBIOTIC COMPOUNDS” (The General Hospital Corporation, priority 2019, published 2022)
Converted amounts (≈) assume the structure as drawn.

Key:
MRSA MW2 cells = test: Bacterial membrane permeability assay (SYTOX Green); assay type: cell-based, S. aureus; details: for membrane activity compared with bithionol: in words (FIGS. 5, 13, 14); for SYTOX Green membrane permeabilization: MRSA MW2 exponential-phase cells and/or persisters, in words
Procedure: Bacterial membrane permeability assay. Exponential-phase or stationary-phase S. aureus MW2 cells prepared as described above under Killing kinetics assay and Persister killing assay, respectively, were washed 3 times with the same volume of PBS. The washed cells were adjusted to OD600=0.4 with PBS. SYTOX Green (Molecular Probes, Waltham, Mass., USA) was added to 10 mL of the diluted bacterial suspension to a final concentration of 5 μM and incubated for 30 min at room temperature in the dark. 50 μl of the bacterial/SYTOX Green suspension was mixed with 50 μl of phosphate buffered saline (PBS) containing twice the desired concentrations of compounds in black, clear-bottom, 96-well plates (Corning no. 3904). Fluorescence was measured at room temperature using a spectrophotometer (SpectraMax M2, Molecular Devices) with excitation and emission wavelengths of 485 nm and 525 nm, respectively. All experiments were conducted in biological triplicate.

MRSA MW2 [1] = test: Antimicrobial activity (MIC) of bithionol analogs; assay type: cell-based, S. aureus; details: for antimicrobial activity compared with bithionol: in words (FIGS. 5, 13, 14)
Procedure: (§1) Minimal inhibitory concentration (MIC) assay. The MICs of antibiotics were determined by the standard micro-dilution method recommended by the Clinical and Laboratory Standards Institute. MIC assays were conducted in biological triplicate.

[2] = tested on: stationary-phase MRSA MW2 persisters; test: Persister killing assay; assay type: cell-based, S. aureus; details: for killing / viability of MRSA persisters: in words, 4 h treatment (FIGS. 5, 13, 14, 4B); for response of MRSA persisters to conventional antibiotics: 100× MIC
Procedure: (§2) Persister killing assay. […] Persister cells of MRSA MW2 or VRSA VRS1 were prepared by growing cultures overnight to stationary phase at 37° C. at 200 rpm and washing three times with PBS. 1 mL of ˜1×10^8 CFU/mL MRSA persisters was added to 1 mL of PBS containing a 2-fold higher concentration of the desired concentration of antibiotics in a 96-well assay block (Corning Costar 3960). For assays with daptomycin, PBS was supplemented with 50 μg/mL CaCl2. The assay block was incubated at 37° C. with shaking at 200 rpm. At various times, 400 μl samples were removed, washed once with PBS, serially diluted and spot-plated on TSA plates. Colonies were counted after overnight incubation at 37° C. to determine the titer of live cells. These experiments were conducted in triplicate.

MRSA BF1 = test: MIC assay (micro-dilution); assay type: cell-based, S. aureus; details: Staphylococcus aureus
Procedure: as §1
(§3) Antimicrobial activity of each analog was tested against four MRSA strains (MW2, BF1, BF2, and BF3), Pseudomonas aeruginosa (PA14), Klebsiella pneumonia (WGLW2), and Acinetobacter baumannii (ATCC 17978).

MRSA BF3 = test: MIC assay (micro-dilution); assay type: cell-based, S. aureus; details: Staphylococcus aureus
Procedure: as §1, §3

MRSA BF2 = test: MIC assay (micro-dilution); assay type: cell-based, S. aureus; details: Staphylococcus aureus
Procedure: as §1, §3

MRSA MW2 [3] = test: MIC assay (micro-dilution); assay type: cell-based, S. aureus; details: Staphylococcus aureus
Procedure: as §1, §3

K. pneumoniae WGLW2 = test: MIC assay (micro-dilution); assay type: cell-based, Klebsiella pneumonia; details: Klebsiella pneumoniae
Procedure: as §1, §3

A. baumannii ATCC 17978 = test: MIC assay (micro-dilution); assay type: cell-based; details: Acinetobacter baumannii, ATCC17978
Procedure: as §1, §3

P. aeruginosa PA14 = test: MIC assay (micro-dilution); assay type: cell-based; details: Pseudomonas aeruginosa
Procedure: as §1, §3

S. aureus MW2 = test: Membrane fluidity assay (Laurdan GP); assay type: cell-based; details: 32 μg/mL (FIG. 4), in words
Procedure: Membrane fluidity assay. Bacterial membrane fluidity was estimated by slightly modifying previously described methods. An overnight culture of S. aureus MW2 was diluted 1:1,000 in 25 mL TSB. The diluted culture was grown to OD600˜1.5 at 37° C. with shaking at 200 rpm, followed by 10 min incubation with 10 μM Laurdan at room temperature in the dark (Sigma-Aldrich, Cat # 40227). The stained cell culture was washed with PBS 4 times and concentrated 2 times. 100 μL of the 2-fold concentrated culture was mixed with 100 μL of phosphate buffered saline (PBS) containing twice the desired concentrations of compounds in black, clear-bottom, 96-well plates (Corning no. 3904). After 1 h incubation at room temperature in the dark, the Laurdan fluorescence intensities were measured using a spectrophotometer (SpectraMax M2, Molecular Devices) with emission wavelengths of 435 nm and 490 nm upon excitation at 350 nm. The Laurdan GP was calculated using the formula GP=(I435−I490)/(I435+I490). All experiments were conducted in biological triplicate.

[4] = tested on: VRSA strain VRS1 persisters; test: Persister killing assay; assay type: cell-based, S. aureus; details: linezolid and daptomycin at 100× MIC; bithionol at indicated concentrations (FIG. 1E)
Procedure: as §2

18 S. aureus strains = test: MIC assay, S. aureus strains of the panel; assay type: cell-based; details: Staphylococcus aureus; range over the 18 S. aureus strains of the panel (FIG. 6)
Procedure: Bacterial strains and growth conditions. S. aureus strains were grown in tryptic soy broth (TSB) (BD, Franklin Lakes, N.J., USA). E. faecium and E. faecalis strains were grown in brain-heart infusion (BHI) broth (BD, Franklin Lakes, N.J., USA), and four Gram-negative species, Klebsiella pneumoniae, Acinetobacter baumannii, Pseudomonas aeruginosa, and Enterobacter aerogenes were grown in Luria Bertani (LB) broth (BD, Franklin Lakes, N.J., USA). All bacteria were grown at 37° C. at 200 r.p.m.
as §1

[5] = tested on: MRSA strain MW2 persisters; test: Deep-seated mouse thigh infection model, bacterial load; assay type: in vivo; details: 30 mg/kg each agent, every 12 h for 3 days from 24 h post-infection
Procedure: Deep-seated mouse thigh infection model. […] Mice were euthanized at 96 h post-infection. […] Thighs were homogenized in PBS, serially diluted with PBS, and spot-plated on TSA plates.

Compound	membrane activity compared with bithionol (MRSA MW2 cells)	antimicrobial activity compared with bithionol (MRSA MW2 [1])	melting point [°C]	SYTOX Green membrane permeabilization (MRSA MW2 cells)	killing / viability of MRSA persisters [2]	other results
COc1c(Cl)cc(Cl)cc1Sc1cc(Cl)cc(Cl)c1OC [BT-OMe, bis-(3,5-Dichloro-2-methoxyphenyl)-sulfane]	complete nullification	complete nullification	–	–	–	–
Oc1c(Br)cc(Cl)cc1Sc1cc(Cl)cc(Br)c1O [BT-oBr, 6,6′-thio-bis-(2-bromo-4-chlorophenol)]	similar	similar	178 to 180	–	–	–
Oc1c(F)cc(Cl)cc1Sc1cc(Cl)cc(F)c1O [BT-oF, 6,6′-thio-bis-(4-chloro-2-fluorophenol)]	slightly reduced	slightly reduced	159 to 161	permeabilize MRSA persister cell membranes	do not kill them	–
Oc1c(Br)cc(Br)cc1Sc1cc(Br)cc(Br)c1O [BT-opBr, 6, 6′-thio-bis-(2,4-dibromophenol)]	similar	similar	164 to 166	–	–	–
Oc1c(F)cc(F)cc1Sc1cc(F)cc(F)c1O [BT-opF, 6,6′-thio-bis-(2,4-difluorophenol)]	slightly reduced	slightly reduced	127 to 130	–	–	–
Oc1c(Cl)cc(Br)cc1Sc1cc(Br)cc(Cl)c1O [BT-pBr, 6,6′-thio-bis-(4-bromo-2-chlorophenol)]	similar	similar	200 to 202	–	–	–
Oc1c(Cl)cc(F)cc1Sc1cc(F)cc(Cl)c1O [BT-pF, 6,6′-thio-bis-(2-chloro-4-fluorophenol)]	slightly reduced	slightly reduced	140 to 142	permeabilize MRSA persister cell membranes	do not kill them	–
NCCOc1c(Cl)cc(Cl)cc1Sc1cc(Cl)cc(Cl)c1OCCN [Compound 1]	–	–	–	–	–	MIC (MRSA BF1): 64 µg/mL (≈ 145 µM); MIC (MRSA BF3): 32 µg/mL (≈ 72.4 µM); MIC (MRSA BF2): 64 µg/mL (≈ 145 µM); MIC (MRSA MW2 [3]): 64 µg/mL (≈ 145 µM); MIC (K. pneumoniae WGLW2): 64 µg/mL (≈ 145 µM); MIC (A. baumannii ATCC 17978): 64 µg/mL (≈ 145 µM); MIC (P. aeruginosa PA14): > 64 µg/mL
[O-][S+](c1cc(Cl)cc(Cl)c1O)c1cc(Cl)cc(Cl)c1O [bitin-S]	reduced membrane activity	decreased antimicrobial activity	–	permeabilize MRSA persister cell membranes	do not kill them	MIC (MRSA MW2 [1]; bithionol analogs (FIGS. 5 and 13), strain not given): 8 µg/mL (≈ 21.5 µM); change in membrane fluidity (Laurdan GP) (S. aureus MW2): do not cause the change in membrane fluidity
CCCCCCCCCC(=O)N[C@@H](Cc1c[nH]c2ccccc12)C(=O)N[C@H](CC(N)=O)C(=O)N[C@@H](CC(=O)O)C(=O)N[C@@H]1C(=O)NCC(=O)N[C@@H](CCCN)C(=O)N[C@@H](CC(=O)O)C(=O)N[C@H](C)C(=O)N[C@@H](CC(=O)O)C(=O)NCC(=O)N[C@H](CO)C(=O)N[C@@H]([C@H](C)CC(=O)O)C(=O)N[C@@H](CC(=O)c2ccccc2N)C(=O)O[C@@H]1C [daptomycin]	–	–	–	does not induce rapid SYTOX Green membrane permeabilization	does not kill MRSA persisters	activity against VRSA VRS1 persisters [4]: nominal activity; response of MRSA persisters to conventional antibiotics [2]: high level of tolerance; MIC (18 S. aureus strains): 0.5 to 8 µg/mL (≈ 0.309 to 4.94 µM)
CC(=O)NC[C@H]1CN(c2ccc(N3CCOCC3)c(F)c2)C(=O)O1 [linezolid]	–	–	–	–	–	activity against VRSA VRS1 persisters [4]: no; response of MRSA persisters to conventional antibiotics [2]: high level of tolerance
CN[C@H](CC(C)C)C(=O)N[C@H]1C(=O)N[C@@H](CC(N)=O)C(=O)N[C@H]2C(=O)N[C@H]3C(=O)N[C@H](C(=O)N[C@H](C(=O)O)c4cc(O)cc(O)c4-c4cc3ccc4O)[C@H](O)c3ccc(c(Cl)c3)Oc3cc2cc(c3O[C@@H]2O[C@H](CO)[C@@H](O)[C@H](O)[C@H]2O[C@H]2C[C@](C)(N)[C@H](O)[C@H](C)O2)Oc2ccc(cc2Cl)[C@H]1O [vancomycin]	–	–	–	–	–	effect on MRSA CFUs in the mouse thigh [5]: did not significantly reduce
gentamicin	–	–	–	–	–	effect on MRSA CFUs in the mouse thigh [5]: did not significantly reduce
